{"source": "ChEMBL document CHEMBL1201862", "about": "“PubChem BioAssay data set” (2004)", "key": {"[1]": {"assay": "viability loss in HEK293T cells – cell-based, cherry-picks, cytotoxicity control for HIV Vif inhibitor project, dose response (AID 652208)", "assay_type": "functional"}, "Cryptococcus neoformans": {"system": "Cryptococcus neoformans", "assay": "PubChem AID 686997", "assay_type": "functional, organism-based"}, "Mu-type opioid receptor": {"target": "Mu-type opioid receptor (Homo sapiens, UniProt P35372)", "sequence (P35372 whole entry)": "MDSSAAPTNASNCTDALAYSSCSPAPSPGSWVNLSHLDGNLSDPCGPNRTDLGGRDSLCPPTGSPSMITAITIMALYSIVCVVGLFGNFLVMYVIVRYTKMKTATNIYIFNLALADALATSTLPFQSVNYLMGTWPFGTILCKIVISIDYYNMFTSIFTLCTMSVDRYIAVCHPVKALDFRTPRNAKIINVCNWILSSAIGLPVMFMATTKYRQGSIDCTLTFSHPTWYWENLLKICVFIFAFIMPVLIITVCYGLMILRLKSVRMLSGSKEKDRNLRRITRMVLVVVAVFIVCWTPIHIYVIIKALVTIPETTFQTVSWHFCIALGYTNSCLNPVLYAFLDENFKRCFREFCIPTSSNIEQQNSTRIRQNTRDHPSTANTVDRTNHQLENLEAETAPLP", "assay_type": "functional, cell-based"}, "[2]": {"target": "5-hydroxytryptamine receptor 2A (Mus musculus, UniProt P35363)", "sequence (P35363 whole entry)": "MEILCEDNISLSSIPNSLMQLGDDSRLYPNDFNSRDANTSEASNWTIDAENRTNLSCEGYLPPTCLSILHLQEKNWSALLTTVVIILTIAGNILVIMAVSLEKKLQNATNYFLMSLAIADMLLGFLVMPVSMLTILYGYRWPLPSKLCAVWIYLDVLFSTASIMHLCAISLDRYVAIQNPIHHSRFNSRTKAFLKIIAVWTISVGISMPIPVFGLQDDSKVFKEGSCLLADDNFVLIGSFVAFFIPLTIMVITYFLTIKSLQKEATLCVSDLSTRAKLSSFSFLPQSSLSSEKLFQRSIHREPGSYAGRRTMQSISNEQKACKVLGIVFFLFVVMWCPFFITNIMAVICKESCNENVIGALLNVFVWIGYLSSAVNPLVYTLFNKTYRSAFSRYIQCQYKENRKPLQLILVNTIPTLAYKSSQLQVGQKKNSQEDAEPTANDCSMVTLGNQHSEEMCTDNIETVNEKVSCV", "assay_type": "functional, cell-based"}, "[3]": {"target": "Photoreceptor-specific nuclear receptor (Homo sapiens, UniProt Q9Y5X4)", "sequence (Q9Y5X4 whole entry)": "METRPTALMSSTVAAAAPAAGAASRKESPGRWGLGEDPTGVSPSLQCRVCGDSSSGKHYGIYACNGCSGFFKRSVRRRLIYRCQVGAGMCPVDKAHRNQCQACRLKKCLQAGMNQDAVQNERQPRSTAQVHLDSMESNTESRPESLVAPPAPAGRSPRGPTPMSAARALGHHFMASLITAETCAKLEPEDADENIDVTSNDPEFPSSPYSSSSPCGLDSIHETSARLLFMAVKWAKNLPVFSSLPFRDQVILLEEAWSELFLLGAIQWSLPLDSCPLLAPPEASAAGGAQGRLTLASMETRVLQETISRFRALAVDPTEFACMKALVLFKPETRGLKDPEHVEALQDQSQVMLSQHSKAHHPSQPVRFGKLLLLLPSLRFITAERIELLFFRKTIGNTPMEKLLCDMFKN", "assay_type": "functional, cell-based"}, "cells [4]": {"assay": "cells", "assay_type": "functional, cell-based"}, "[5]": {"target": "Nuclear receptor subfamily 0 group B member 1 (Homo sapiens, UniProt P51843)", "sequence (P51843 whole entry)": "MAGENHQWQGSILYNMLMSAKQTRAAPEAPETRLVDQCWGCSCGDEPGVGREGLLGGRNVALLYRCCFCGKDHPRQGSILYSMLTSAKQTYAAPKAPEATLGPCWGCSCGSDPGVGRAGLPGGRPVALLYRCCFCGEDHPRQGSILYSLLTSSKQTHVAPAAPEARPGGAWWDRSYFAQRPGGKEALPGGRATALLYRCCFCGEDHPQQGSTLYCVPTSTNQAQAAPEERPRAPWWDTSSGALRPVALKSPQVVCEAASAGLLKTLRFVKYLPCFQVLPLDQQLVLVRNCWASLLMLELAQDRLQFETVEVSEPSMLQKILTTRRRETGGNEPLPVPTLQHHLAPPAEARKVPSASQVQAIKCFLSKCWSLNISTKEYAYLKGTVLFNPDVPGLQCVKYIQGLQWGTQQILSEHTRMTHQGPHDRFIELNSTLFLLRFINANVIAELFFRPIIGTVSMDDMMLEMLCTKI", "assay_type": "functional, cell-based"}, "[6]": {"target": "T1, Oxysterols receptor LXR-beta (Homo sapiens, UniProt P55055)", "T1 sequence (P55055 whole entry)": "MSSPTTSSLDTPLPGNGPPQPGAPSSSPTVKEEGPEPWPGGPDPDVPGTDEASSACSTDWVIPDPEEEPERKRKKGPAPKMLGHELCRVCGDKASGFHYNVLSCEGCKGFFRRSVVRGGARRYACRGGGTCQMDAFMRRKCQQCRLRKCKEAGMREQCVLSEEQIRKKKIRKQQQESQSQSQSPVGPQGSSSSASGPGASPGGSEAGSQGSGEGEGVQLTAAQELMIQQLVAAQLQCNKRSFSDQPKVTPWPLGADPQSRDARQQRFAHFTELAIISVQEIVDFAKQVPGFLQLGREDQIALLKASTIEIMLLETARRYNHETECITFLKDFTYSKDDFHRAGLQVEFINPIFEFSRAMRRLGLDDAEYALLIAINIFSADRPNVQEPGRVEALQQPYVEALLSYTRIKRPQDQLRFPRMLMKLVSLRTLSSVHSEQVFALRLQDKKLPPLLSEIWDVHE", "assay_type": "functional, cell-based"}, "cells [7]": {"assay": "cells"}, "[8]": {"assay": "general mammalian cell viability loss – inhibitor set, cherry-pick, set 2, cytotoxicity control for miR-122 modulator project, dose response (AID 720697)", "assay_type": "functional, cell-based"}, "cells [9]": {"assay": "cells", "assay_type": "functional, cell-based", "remark": "listed apart in the source"}, "cells [10]": {"assay": "cells", "assay_type": "functional, cell-based", "remark": "listed apart in the source"}, "[11]": {"assay": "HEK-293T viability loss after treatment – luminescence, T-cell screen hits, cytotoxicity control for TCR NF-kB inhibitor project, dose response (AID 489026);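 further: cells exposed to compound about 14 hours before the viability readout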", "assay_type": "functional, cell-based"}, "[12]": {"target": "T2, Heat shock factor protein 1 (Mus musculus, UniProt P38532)", "T2 sequence (P38532 whole entry)": "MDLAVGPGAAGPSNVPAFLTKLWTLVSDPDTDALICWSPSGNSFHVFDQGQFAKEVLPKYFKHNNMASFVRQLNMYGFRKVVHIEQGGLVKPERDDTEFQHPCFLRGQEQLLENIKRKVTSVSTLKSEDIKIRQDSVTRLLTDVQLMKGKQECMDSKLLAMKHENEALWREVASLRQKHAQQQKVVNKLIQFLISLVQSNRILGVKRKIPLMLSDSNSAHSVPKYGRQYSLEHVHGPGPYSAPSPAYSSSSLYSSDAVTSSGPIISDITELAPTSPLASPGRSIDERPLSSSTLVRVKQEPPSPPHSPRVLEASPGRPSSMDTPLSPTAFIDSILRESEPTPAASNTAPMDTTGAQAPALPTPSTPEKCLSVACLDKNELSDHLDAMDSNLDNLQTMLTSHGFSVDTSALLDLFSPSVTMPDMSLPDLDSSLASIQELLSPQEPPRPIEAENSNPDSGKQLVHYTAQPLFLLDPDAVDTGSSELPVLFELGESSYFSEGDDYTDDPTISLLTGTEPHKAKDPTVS", "assay": "enhancement of HSF1-driven luciferase signal – cell-based, NIH3T3, luminescence, dose retest, confirmation (AID 435004);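 further: stress induced by proteasome inhibitor MG132 added 30 min after compound; actives raise luminescence as potentiators of the MG132 stress response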", "assay_type": "functional"}, "BJ": {"system": "BJ", "assay": "growth inhibition of engineered Ras-driven BJ cells – cell-based, alamar blue fluorescence, cherrypicked samples, dose response (AID 2631);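 further: confirmatory dose-response assay in RAS-dependent BJ fibroblasts engineered with TERT, LT and ST, with cytotoxicity read by fluorescence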", "assay_type": "functional", "settings": "Homo sapiens"}, "INS1": {"system": "INS1", "assay": "INS-1E survival protection against cytokine death – cell-based, luminescence, retest, dose response (AID 449756);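 further: cell death triggered by IL-1 beta plus TNF-alpha plus IFN-gamma mixture; protective hits raise ATP signal compared with cytokine alone wells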", "assay_type": "functional", "settings": "Rattus norvegicus"}, "P388/ADR": {"system": "P388/ADR", "assay": "cells", "assay_type": "functional", "settings": "Mus musculus"}, "SN12K1": {"system": "SN12K1", "assay": "cells", "assay_type": "functional", "settings": "Homo sapiens"}, "P388": {"system": "P388", "assay": "cells", "assay_type": "functional", "settings": "Mus musculus"}, "[13]": {"assay": "blockers of HIV-1 envelope-mediated cell-cell fusion – cherry-pick, dose response (AID 652057)", "assay_type": "functional, cell-based"}, "[14]": {"assay": "viability loss in CEM21 cells – cell-based, CellTiter-Glo luminescence, cherry-picked, cytotoxicity control for viral fusion inhibitor project, dose response (AID 652042);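 further: potency for signal decrease meaning cytotoxicity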", "assay_type": "functional"}, "[15]": {"assay": "blockers of HIV-1 ZM109 envelope-driven cell-cell fusion – HeLa effector, CEM target cells, luciferase, cherry-pick, dose response (AID 652058)", "assay_type": "functional, cell-based"}, "Paired box protein Pax-8": {"target": "Paired box protein Pax-8 (Homo sapiens, UniProt Q06710)", "sequence (Q06710 whole entry)": "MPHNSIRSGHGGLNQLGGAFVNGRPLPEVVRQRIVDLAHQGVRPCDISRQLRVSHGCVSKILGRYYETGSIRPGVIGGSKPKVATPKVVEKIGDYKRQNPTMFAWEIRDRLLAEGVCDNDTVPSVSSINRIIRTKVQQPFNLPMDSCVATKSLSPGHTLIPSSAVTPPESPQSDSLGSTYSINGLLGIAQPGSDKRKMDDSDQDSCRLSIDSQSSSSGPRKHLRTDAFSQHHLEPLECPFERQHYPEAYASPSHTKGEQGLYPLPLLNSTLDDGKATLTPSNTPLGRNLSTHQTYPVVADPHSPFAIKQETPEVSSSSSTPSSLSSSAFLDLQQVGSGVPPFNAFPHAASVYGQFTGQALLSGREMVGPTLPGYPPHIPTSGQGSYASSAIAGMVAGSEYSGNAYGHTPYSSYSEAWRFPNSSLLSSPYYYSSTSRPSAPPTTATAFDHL", "assay": "PAX8 transcriptional activity inhibition in RMG-I – RMG-I cells, luciferase, cherry-pick, dose response (AID 687027);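 further: luciferase reporter driven by Pax8 target thyroperoxidase promoter measured by SteadyGlo luminescence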", "assay_type": "functional, cell-based"}, "[16]": {"assay": "off-target signal loss in HeLa-CEM21 co-culture – HeLa F-luc CTL cells, cherry-picked, counter-screen for HIV-1 Env fusion inhibitor project, dose response (AID 652040);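 further: potency for signal decrease marking cytotoxic or nonspecific inhibition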", "assay_type": "functional, cell-based"}, "[17]": {"assay": "HIV-1 AD8 envelope cell-cell fusion blockers – cherry-pick, dose response (AID 652062);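 further: potency is for inhibitors of fusion seen as a drop in luminescence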", "assay_type": "functional, cell-based"}, "[18]": {"target": "Potassium channel subfamily K member 9 (Homo sapiens, UniProt Q9NPC2)", "sequence (Q9NPC2 whole entry)": "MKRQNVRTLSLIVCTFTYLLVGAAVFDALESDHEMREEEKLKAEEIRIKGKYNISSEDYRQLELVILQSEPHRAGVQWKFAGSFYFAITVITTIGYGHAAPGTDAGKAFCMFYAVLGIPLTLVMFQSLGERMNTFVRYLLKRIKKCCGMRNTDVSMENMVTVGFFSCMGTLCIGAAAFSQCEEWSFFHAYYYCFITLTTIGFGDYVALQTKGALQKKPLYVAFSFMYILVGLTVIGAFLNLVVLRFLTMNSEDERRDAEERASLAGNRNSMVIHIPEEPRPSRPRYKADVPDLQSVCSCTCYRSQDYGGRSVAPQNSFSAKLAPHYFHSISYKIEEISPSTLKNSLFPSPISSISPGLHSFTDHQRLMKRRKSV", "assay": "KCNK9 flux blockade, concentration-response – cell-based, FluxOR thallium flux, selectivity assay for TASK1 inhibitor project, SAR follow-up (AID 652211);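 further: potency is for inhibitors of the channel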", "assay_type": "functional"}, "Vero": {"system": "Vero", "assay": "viability loss in Vero cells – cell-based, plate reader, cherry-pick samples, cytotoxicity control, dose response (AID 687020)", "assay_type": "functional", "settings": "Chlorocebus sabaeus"}, "[19]": {"assay": "Counterscreen for […] of the human trace amine associated receptor 1 (TAAR1): Fluorescence-based cell-based high throughput dose response assay to identify nonselective Ga16 agonists.", "assay_type": "functional"}, "[20]": {"assay": "Counterscreen for antagonists of the human trace amine associated receptor 1 (hTAAR1): Fluorescence-based cell-based high throughput dose response assay to identify nonselective Ga16 antagonists.", "assay_type": "functional"}}, "note": "The source made the active and inactive calls."}
{"compound": "Cc1cc2cc(C#N)c(SCC(=O)Nc3nonc3C)nc2cc1C", "values": [{"measurement": "AC50", "setting": "[1]", "result": "34.9 µM (active)"}]}
{"compound": "COCCN1C(=S)N[C@@H](c2ccccc2)C(C(=O)OC)=C1C", "values": [{"measurement": "AC50", "setting": "Cryptococcus neoformans", "result": "> 84 µM (inactive)"}]}
{"compound": "CN1C[C@H](CO)C[C@@H]2c3cccc4[nH]cc(c34)C[C@H]21", "values": [{"measurement": "EC50", "setting": "Mu-type opioid receptor", "result": "92.5 µM (inactive)"}, {"measurement": "EC50", "setting": "[2]", "result": "0.0819 µM (active)"}]}
{"compound": "Cc1ccnc(NC(=O)Cc2ccc(-c3ccccc3)cc2)c1", "values": [{"measurement": "IC50", "setting": "[3]", "result": "0.741 µM (active)"}, {"measurement": "IC50", "setting": "cells [4]", "result": "> 67.5 µM (inactive)"}, {"measurement": "IC50", "setting": "[5]", "result": "> 67.5 µM (inactive)"}, {"measurement": "EC50", "setting": "[6]", "result": "> 67.5 µM (inactive)"}, {"measurement": "EC50", "setting": "cells [7]", "result": "> 67.5 µM (inactive)"}]}
{"compound": "O=C(c1ccco1)c1cn(Cc2ccccc2Cl)c2ccccc12", "values": [{"measurement": "AC50", "setting": "[8]", "result": "9.08 µM (active)"}]}
{"compound": "CC[C@@]1(O)C(=O)OCc2c1cc1n(c2=O)Cc2cc3c(N)cccc3nc2-1", "note": "[9-AMINOCAMPTOTHECIN]", "values": [{"measurement": "EC50", "setting": "cells [9]", "result": "> 350 µM (not active)"}, {"measurement": "EC50", "setting": "cells [10]", "result": "> 350 µM (not active)"}, {"measurement": "IC50", "setting": "[11]", "result": "> 80 µM (inactive)"}, {"measurement": "EC50", "setting": "[12]", "result": "> 260 µM (inconclusive)"}, {"measurement": "EC50", "setting": "BJ", "result": "0.00718 µM (active)"}, {"measurement": "AC50", "setting": "INS1", "result": "2.13 µM (active)"}, {"measurement": "GI50", "setting": "P388/ADR", "result": "< 0.0174 µM (active)"}, {"measurement": "GI50", "setting": "SN12K1", "result": "< 0.0227 µM (active)"}, {"measurement": "GI50", "setting": "P388", "result": "< 0.0119 µM (active)"}, {"measurement": "IC50", "setting": "[3]", "result": "0.896 µM (active)"}, {"measurement": "AC50", "setting": "[13]", "result": "< 0.26 µM (active)"}, {"measurement": "AC50", "setting": "[14]", "result": "2.47 µM (active)"}, {"measurement": "AC50", "setting": "[15]", "result": "0.463 µM (active)"}, {"measurement": "AC50", "setting": "Paired box protein Pax-8", "result": "< 0.26 µM (active)"}, {"measurement": "AC50", "setting": "[16]", "result": "< 0.26 µM (active)"}, {"measurement": "AC50", "setting": "[17]", "result": "0.348 µM (active)"}]}
{"compound": "CCOc1ccccc1C(=O)Nc1cccc(NC(=O)c2ccccc2OC)c1", "values": [{"measurement": "IC50", "setting": "[18]", "result": "1.98 µM (active)"}]}
{"compound": "O=C(COc1ccccc1)Nc1ccc(N2CCN(C(=O)c3cccs3)CC2)cc1", "values": [{"measurement": "AC50", "setting": "Vero", "result": "35.4 µM (active)"}]}
{"compound": "Cc1nn(Cc2c(F)c(F)c(F)c(F)c2F)c(C)c1NC(=O)c1ccc(COc2ccccc2Cl)cc1", "values": [{"measurement": "EC50", "setting": "[19]", "result": "> 29.9 µM (inactive)"}, {"measurement": "IC50", "setting": "[20]", "result": "> 29.9 µM (inactive)"}]}
